Source: paper PMC3172288, “RLIP76, a Glutathione-Conjugate Transporter, Plays a Major Role in the Pathogenesis of Metabolic Syndrome” (PLoS ONE, 2011)

Key:
[1] = target: T1, RLIP76 (Homo sapiens, UniProt Q15311); experiment: inhibition of ATP-dependent 3H-GSHNE uptake into RLIP76 proteoliposomes; format: biochemical; conditions: 10 µM 3H-GSHNE, 0-100 µM drug, 30 min incubation at 37 °C
T1 construct: gene RALBP1; purified recombinant RLIP76 reconstituted in proteoliposomes
T1 sequence (Q15311 2-655): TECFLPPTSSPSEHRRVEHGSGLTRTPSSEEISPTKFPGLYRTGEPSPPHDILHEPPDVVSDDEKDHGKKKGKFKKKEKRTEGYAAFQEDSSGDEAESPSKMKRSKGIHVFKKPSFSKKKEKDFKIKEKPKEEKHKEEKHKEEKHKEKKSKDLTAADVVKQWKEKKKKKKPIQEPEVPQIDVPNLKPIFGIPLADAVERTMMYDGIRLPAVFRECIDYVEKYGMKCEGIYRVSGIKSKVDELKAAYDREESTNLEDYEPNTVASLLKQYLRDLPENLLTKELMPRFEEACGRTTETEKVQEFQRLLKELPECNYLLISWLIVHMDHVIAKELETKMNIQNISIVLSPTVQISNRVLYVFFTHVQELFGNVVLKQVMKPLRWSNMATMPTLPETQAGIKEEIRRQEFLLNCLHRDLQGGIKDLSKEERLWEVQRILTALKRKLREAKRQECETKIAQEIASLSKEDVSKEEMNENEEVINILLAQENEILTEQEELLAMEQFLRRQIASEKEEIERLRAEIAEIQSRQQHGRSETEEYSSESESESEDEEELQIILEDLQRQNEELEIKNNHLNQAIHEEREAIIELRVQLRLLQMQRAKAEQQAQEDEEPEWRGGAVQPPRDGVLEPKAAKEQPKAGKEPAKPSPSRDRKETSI

[2] = target: T1, RLIP76; experiment: ATP-dependent uptake of 3H-GSHNE into RLIP76 proteoliposomes; format: biochemical; conditions: 10 µM, labelled compound, 37 °C

CN(C)C(=N)NC(=N)N [metformin]
inhibition of ATP-dependent 3H-GSHNE uptake into RLIP76 proteoliposomes [1]: metformin inhibits only half of the transport activity

CCCCCC(O)C(CC=O)SC[C@H](NC(=O)CC[C@H](N)C(=O)O)C(=O)NCC(=O)O (stereo partly drawn) [3H-GSHNE]
ATP-dependent uptake of 3H-GSHNE into RLIP76 proteoliposomes [2]: ATP-dependent uptake of ^3H-GSHNE

CN(CCOc1ccc(CC2SC(=O)NC2=O)cc1)c1ccccn1 (stereo not drawn) [rosiglitazone]
inhibition of ATP-dependent 3H-GSHNE uptake into RLIP76 proteoliposomes [1]: Inhibition of the transport activity of purified recombinant human RLIP76 towards physiological substrate
